The test addresses PLpro of SARS-CoV-2 (Severe acute respiratory syndrome coronavirus 2, UniProt P0DTD1). Description: Enzyme activity test in vitro: inhibition of PLpro at fixed concentration 50 μM (RLRGG-AMC substrate). It counts as biochemical. The settings on record: read-out: Inhibition rate at 50 μM (%).

On to `COc1ccc(-c2nc3cnccn3c2Nc2ccc(C(=O)N3CCOCC3)cc2)cc1OC` [P22470, [4-[[2-(3,4-dimethoxy-phenyl)imidazo[1,2-a]pyrazin-3-yl]amino]phenyl]-morpholin-4-ylmethanone], for which the inhibition at 50 µM is 32.1%. As for `COC(=O)c1cccc(Nc2c(-c3cc(Br)ccc3O)nc3cnccn23)c1` [P19466, methyl 3-[[2-(5-bromo-2-hydroxyphenyl)imidazo [1,2-a]pyrazin-3-yl]amino]benzoate], the inhibition at 50 µM turned out to be 31.9%. Turning to `O=C(NCCN1CCOCC1)c1ccc(Nc2c(-c3ccc(Cl)cc3)nc3cnccn23)cc1` [P22413, 4-[[2-(4-chlorophenyl)imidazo[1,2-a]pyrazin-3-yl]amino]-N-(2-morpholin-4-ylethyl)benzamide], the inhibition at 50 µM was found to be 36.1%. In the case of `COc1ccc(-c2nc3cnccn3c2Nc2ccc(C(=O)N3CCCCC3)cc2)cc1` [P22454, [4-[[2-(4-methoxy-phenyl)imidazo[1,2-a]pyrazin-3-yl]amino]phenyl]-piperidin-1-ylmethanone], the inhibition at 50 µM was 31.8%. As for `COc1ccc(-c2nc3cnccn3c2Nc2cccc(C(=O)NCCN3CCOCC3)c2)cc1` [P22437, 3-[[2-(4-methoxy-phenyl)imidazo[1,2-a]pyrazin-3-yl]amino]-N-(2-morpholin-4-ylethyl)benzamide], the inhibition at 50 µM amounted to 24.2%.

For the molecule `O=C(NCCN1CCOCC1)c1cccc(Nc2c(-c3ccccc3)nc3cnccn23)c1` [P22427, N-[2-(1,4-oxazinan-4-yl)ethyl]-3-[(2-phenylimidazo[1,2-a]pyrazin-3-yl)amino] benzamide], the inhibition at 50 µM turned out to be 22.8%.

Regarding `CCOC(=O)c1ccc(Nc2c(-c3ccc(C)cc3)nc3cnccn23)cc1` [P22482, ethyl 4-[[2-(4-methylphenyl)imidazo[1,2-a]pyrazin-3-yl]amino] benzoate], the inhibition at 50 µM was 22.2%. Turning to `O=C(O)c1cccc(Nc2c(-c3cccc(O)c3)nc3cnccn23)c1` [P37338, 3-[[2-(3-hydroxy-phenyl)imidazo[1,2-a]pyrazin-3-yl]amino] benzoic acid], the inhibition at 50 µM was found to be 11.7%. With `CCc1cccc(C)c1Nc1c(-c2ccc(C(=O)OC)cc2)nc2cnccn12` [P36232, methyl 4-[3-(2-ethyl-6-methylanilino)imidazo [1,2-a]pyrazin-2-yl]benzoate], the inhibition at 50 µM came out at 20.3%. Take `COc1ccc(-c2nc3cnccn3c2Nc2ccccc2C)cc1OC` [P19463, 2-(3,4-dimethoxy-phenyl)-N-(2-methylphenyl)imidazo[1,2-a]pyrazin-3-amine]: the inhibition at 50 µM is 40.7%.

For the molecule `CSc1ccc(-c2nc3cnccn3c2Nc2cccc(C(=O)N3CCCCC3)c2)cc1` [P22478, [3-[[2-(4-methyl-sulfanylphenyl)imidazo [1,2-a]pyrazin-3-yl]amino]phenyl]-piperidin-1-ylmethanone], the inhibition at 50 µM was 43.9%. On to `CNC(=O)c1ccc(Nc2c(-c3ccccc3)nc3cnccn23)cc1` [P22451, N-methyl-4-[(2-phenyl-imidazo[1,2-a]pyrazin-3-yl)amino] benzamide], for which the inhibition at 50 µM worked out at 34.7%. The figure for `COc1ccc(-c2nc3cnccn3c2Nc2ccc(C(=O)NCCN3CCOCC3)cc2)cc1` [P22403, 4-[[2-(4-methoxy-phenyl)imidazo[1,2-a]pyrazin-3-yl]amino]-N-(2-morpholin-4-ylethyl)benzamide] is 31.7%; for `CCOC(=O)c1ccc(Nc2c(-c3cccc(O)c3)nc3cnccn23)cc1` [P22552, ethyl 4-[[2-(3-hydroxy-phenyl)imidazo[1,2-a]pyrazin-3-yl]amino] benzoate] it is 19.9%; for `O=C(NCC1CCCO1)c1cccc(Nc2c(-c3ccc(Cl)cc3)nc3cnccn23)c1` (centres unmarked) [P22408, 3-[[2-(4-chlorophenyl)imidazo[1,2-a]pyrazin-3-yl]amino]-N-(oxolan-2-ylmethyl)benzamide] it is 17.3%. Turning to `O=C(O)c1cccc(Nc2c(-c3ccc(O)cc3)nc3cnccn23)c1` [P19496, 3-[[2-(4-hydroxy-phenyl)imidazo[1,2-a]pyrazin-3-yl]amino] benzoic acid], the inhibition at 50 µM turned out to be 40.5%. As for `O=C(NC1CCCCC1)c1ccc(Nc2c(-c3ccccc3)nc3cnccn23)cc1` [P22404, N-cyclohexyl-4-[(2-phenylimidazo[1,2-a]pyrazin-3-yl)amino] benzamide], the inhibition at 50 µM came out at 26.1%.

`CN(C)c1ccc(-c2nc3cnccn3c2Nc2ccc(C(=O)O)cc2)cc1` [P19475, 4-[[2-[4-(dimethyl-amino)phenyl]imidazo [1,2-a]pyrazin-3-yl]amino]benzoic acid]: the inhibition at 50 µM is 35.1%.

On to `O=C(c1ccc(Nc2c(-c3ccccc3)nc3cnccn23)cc1)N1CCOCC1` [P22474, morpholin-4-yl-[4-[(2-phenylimidazo [1,2-a]pyrazin-3-yl)amino]phenyl] methanone], for which the inhibition at 50 µM was determined as 35.3%.

`COC(=O)c1ccc(-c2nc3cnccn3c2Nc2ccc(Cl)cc2)cc1` [P19484, methyl 4-[3-(4-chloroanilino)imidazo[1,2-a]pyrazin-2-yl]benzoate]: the inhibition at 50 µM was 42.4%. In the case of `NC(=O)c1cccc(Nc2c(-c3ccc(Cl)cc3)nc3cnccn23)c1` [P19492, 3-[[2-(4-chlorophenyl)imidazo[1,2-a]pyrazin-3-yl]amino] benzamide], the inhibition at 50 µM was 35.4%. To `O=C(NCCN1CCOCC1)c1cccc(Nc2c(-c3ccc(Cl)cc3)nc3cnccn23)c1` [P22447, 3-[[2-(4-chlorophenyl)imidazo[1,2-a]pyrazin-3-yl]amino]-N-(2-morpholin-4-ylethyl)benzamide] belongs 41.9%; to `COC(=O)c1ccc(-c2nc3cnccn3c2Nc2cccc(C(F)(F)F)c2)cc1` [P37317, methyl 4-[3-[3-(trifluoro-methyl)anilino]imidazo [1,2-a]pyrazin-2-yl]benzoate], 27.6%.

For `CCOC(=O)c1ccc(Nc2c(-c3ccc(O)c(OC)c3)nc3cnccn23)cc1` [P22551, ethyl 4-[[2-(4-hydroxy-3-methoxyphenyl)imidazo[1,2-a]pyrazin-3-yl]amino]benzoate], the inhibition at 50 µM stood at 21%. To `O=C(O)c1ccc(Nc2c(-c3cccc(Cl)c3)nc3cnccn23)cc1` [P22493, 4-[[2-(3-chlorophenyl)imidazo[1,2-a]pyrazin-3-yl]amino] benzoic acid] belongs 13.2%; to `CCOC(=O)c1ccc(Nc2c(-c3ccc(Cl)cc3)nc3cnccn23)cc1` [P22492, ethyl 4-[[2-(4-chlorophenyl)imidazo[1,2-a]pyrazin-3-yl]amino] benzoate], 29.5%; to `COC(=O)c1cccc(Nc2c(-c3ccccc3)nc3cnccn23)c1` [P19476, methyl 3-[(2-phenylimidazo [1,2-a]pyrazin-3-yl)amino]benzoate], 34%. To `COc1ccc(-c2nc3cnccn3c2Nc2cccc(C(=O)O)c2)cc1` [P19486, 3-[[2-(4-methoxy-phenyl)imidazo[1,2-a]pyrazin-3-yl]amino] benzoic acid] belongs 40.1%. The figure for `COC(=O)c1cccc(Nc2c(-c3ccc(OC)cc3)nc3cnccn23)c1` [P19485, methyl 3-[[2-(4-methoxy-phenyl)imidazo[1,2-a]pyrazin-3-yl]amino] benzoate] is 36%; for `O=C(O)c1cccc(Nc2c(-c3ccc(F)cc3)nc3cnccn23)c1` [P19477, 3-[[2-(4-fluorophenyl)imidazo[1,2-a]pyrazin-3-yl]amino] benzoic acid] it is 5.91%. `CCc1cccc(C)c1Nc1c(-c2ccc(N)cc2)nc2cnccn12` [P37348, 2-(4-aminophenyl)-N-(2-ethyl-6-methyl-phenyl)imidazo[1,2-a]pyrazin-3-amine]: the inhibition at 50 µM stood at 16%. The figure for `COc1ccc(-c2nc3cnccn3c2Nc2ccc(C(=O)N3CCOCC3)cc2)cc1` [P22405, [4-[[2-(4-methoxy-phenyl)imidazo[1,2-a]pyrazin-3-yl]amino]phenyl]-morpholin-4-ylmethanone] is 36.5%; for `O=C(O)c1cccc(Nc2c(-c3ccc(Cl)cc3)nc3cnccn23)c1` [P19516, 3-[[2-(4-chlorophenyl)imidazo[1,2-a]pyrazin-3-yl]amino] benzoic acid] it is 32.8%; for `COC(=O)c1cccc(Nc2c(-c3ccc(C)cc3)nc3cnccn23)c1` [P19515, methyl 3-[[2-(4-methyl-phenyl)imidazo[1,2-a]pyrazin-3-yl]amino] benzoate] it is 37.1%. To `COC(=O)c1ccc(-c2nc3cnccn3c2Nc2ccc(OC)cc2)cc1` [P28376, methyl 4-[3-(4-methoxy-anilino)imidazo[1,2-a]pyrazin-2-yl]benzoate] belongs 28.5%; to `CCNC(=O)c1cccc(Nc2c(-c3ccccc3)nc3cnccn23)c1` [P22446, N-ethyl-3-[(2-phenyl-imidazo[1,2-a]pyrazin-3-yl)amino] benzamide], 44.4%; to `CNC(=O)c1ccc(Nc2c(-c3ccc(OC)cc3)nc3cnccn23)cc1` [P19472, 4-[[2-(4-methoxy-phenyl)imidazo[1,2-a]pyrazin-3-yl]amino]-N-methylbenzamide], 28.1%. As for `Cc1ccc(-c2nc3cnccn3c2Nc2ccc(C(=O)O)cc2)cc1` [P19465, 4-[[2-(4-methyl-phenyl)imidazo[1,2-a]pyrazin-3-yl]amino] benzoic acid], the inhibition at 50 µM turned out to be 15.9%. In the case of `COC(=O)c1cccc(Nc2c(-c3ccc([N+](=O)[O-])cc3)nc3cnccn23)c1` [P24823, methyl 3-[[2-(4-nitrophenyl)imidazo[1,2-a]pyrazin-3-yl]amino] benzoate], the inhibition at 50 µM is 31.2%. For `CCNC(=O)c1cccc(Nc2c(-c3ccc(SC)cc3)nc3cnccn23)c1` [P22466, N-ethyl-3-[[2-(4-methylsulfanylphenyl)imidazo[1,2-a]pyrazin-3-yl]amino] benzamide], the inhibition at 50 µM turned out to be 22.2%.

Regarding `COc1ccc(-c2nc3cnccn3c2Nc2ccc(C(=O)NC3CCCCC3)cc2)cc1OC` [P22450, N-cyclohexyl-4-[[2-(3,4-dimethoxyphenyl)imidazo[1,2-a]pyrazin-3-yl]amino] benzamide], the inhibition at 50 µM came out at 20.8%.

These data come from US20250032485A1, “APPLICATION OF IMIDAZO [1,2-A] PYRAZINE COMPOUNDS OR THEIR PHARMACEUTICALLY ACCEPTABLE SALTS IN THE PREPARATION OF ANTI-CORONAVIRUS DRUGS” (GUANGZHOU MEDICAL UNIVERSITY, priority 2023, published 2025).
